In patent US7960556B2, “Thiadiazole derivatives for the treatment of neuro-degenerative diseases” (NV reMYND, priority 2006, dated 2011):

Tested on: α-synuclein cytotoxicity in M17-SYNwt cells
Assay: α-synuclein cytotoxicity assay: LDH leakage from paraquat-treated M17-SYNwt neuroblastoma cells;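 also: paraquat at 32 mM co-added with compound, 40 h exposure, LDH activity released into the culture medium measured, references are DMSO-only cells and paraquat plus DMSO cells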
Conditions: Homo sapiens, Neuroblastoma cell; for Emax: read-out: % Inhib.
Source text: An α-synuclein expression plasmid was constructed by sub-cloning the NcoI/XhoI fragment from 212T-SYN(WT) (Griffioen et al., Biochem Biophys Acta (2006) 1762(3):312-318) containing the cDNA of human wild type α-synuclein correspondingly into a standard mammalian expression vector pcDNA3.1 (Invitrogen) resulting into the plasmid pcDNA3.1-SYNwt. Plasmids pcDNA3.1 and pcDNA3.1-SYNwt were transfected to human neuroblastoma cells (ATCC No. CRL-2267) and independent clonal lines with the plasmids stably integrated into the genome were selected. […] Over-expression of α-synuclein in M17-SYNwt cell lines was confirmed by Western analysis.
Due to the high levels of α-synuclein M17-SYNwt cells are exquisitely sensitivity to paraquat, a well-known risk factor of synuclein-dependent neuronal degeneration. In degenerated or dead cells lactate dehydrogenase (LDH) is leaked out of the cells into the extracellular environment due to a loss of plasma-membrane integrity. This principle was used to determine cytotoxicity by quantifying the level of leaked LDH into the growth medium.
The detailed method for determining α-synuclein cytotoxicity was as follows: From appropriate precultures of M17 and M17-SYN cells were seeded at 50,000 cells/cm^2 in Optimem Reduced Serum without phenol red (available from InVitrogen, Cat. 31985-047) supplemented with 5% fetal calf serum, 1 mM sodium pyruvate, 1× non-essential amino acids, 500 μg/ml G418 0,5× antibiotic/antimycotic. After 3 hours of incubation at 37° C./5% CO2 paraquat was added to the cells (final concentration of 32 mM), together with the test compound and the cells were further incubated for 40 hours. Subsequently, LDH activity was determined using Promega Cytotox 96 Non-Radioactive cytotoxicity assay, (Cat. G1780) according the instructions of the supplier.
In these experiments, the control group consisted of M17-SYNwt cells treated with DMSO, the untreated paraquat group consisted of M17-SYNwt cells treated with paraquat and DMSO, and the treated paraquat group consisted of M17-SYNwt cells treated with paraquat and the test compound dissolved in DMSO.

Compound | EC50 | Emax
CCCCCc1ccc(C(=O)NCCN2CCN(c3nc(Cc4ccc(F)cc4)ns3)CC2)cc1 [compound 94, 4-pentyl-N-{2-[4-[3-(4-fluorobenzyl)-1,2,4-thiadiazol-5-yl]piperazin-1-yl]ethyl}benzamide] | 0.35 µM | 90%
COc1ccccc1C(=O)N1CCN(c2nc(Cc3ccc(F)cc3)ns2)CC1C (stereo not drawn) [compound 133, 1-(2-methoxybenzoyl)-4-[3-(4-fluorobenzyl)-1,2,4-thiadiazol-5-yl]-2-methylpiperazine] | 0.29 µM | 118%
CCCCS(=O)(=O)N1CCN(c2nc(Cc3ccc(Cl)cc3)ns2)CC1 [compound 81, 1-(butylsulfonyl)-4-[3-(4-chlorobenzyl)-1,2,4-thiadiazol-5-yl]piperazine] | 0.35 µM | 80%
O=S(=O)(c1ccc(F)cc1)N1CCN(c2nc(Cc3ccc(Cl)cc3)ns2)CC1 [compound 33, 1-[4-fluorophenylsulfonyl]-4-[3-(4-chlorobenzyl)-1,2,4-thiadiazol-5-yl]piperazine] | 0.00282 µM | 53%
CCCCc1ccc(C(=O)N2CCN(c3nc(Cc4ccc(F)cc4)ns3)CC2C)cc1 (stereo not drawn) [compound 120, 1-(4-butylbenzoyl)-4-[3-(4-fluorobenzyl)-1,2,4-thiadiazol-5-yl]-2-methylpiperazine] | 0.0987 µM | 120%
Cc1ccc(Cc2nsc(N3CCN(S(=O)(=O)Cc4ccccc4)CC3)n2)cc1 [compound 77, 1-(benzylsulfonyl)-4-[3-(4-methylbenzyl)-1,2,4-thiadiazol-5-yl]piperazine] | – | 81%
CC1CN(c2nc(Cc3ccc(F)cc3)ns2)CCN1C(=O)c1ccc(Br)cc1 (stereo not drawn) [compound 135, 1-(4-bromobenzoyl)-4-[3-(4-fluorobenzyl)-1,2,4-thiadiazol-5-yl]-2-methylpiperazine] | 0.31 µM | 73%
COc1ccc(S(=O)(=O)N2CCN(c3nc(Cc4ccc(C)cc4)ns3)CC2)cc1 [compound 68, 1-[4-methoxyphenylsulfonyl]-4-[3-(4-methylbenzyl)-1,2,4-thiadiazol-5-yl]piperazine] | 0.000255 µM | 53%
CC(C)(C)c1ccc(S(=O)(=O)N2CCN(c3nc(Cc4ccc(Cl)cc4)ns3)CC2)cc1 [compound 69, 1-[4-tert-butylphenylsulfonyl]-4-[3-(4-chlorobenzyl)-1,2,4-thiadiazol-5-yl]piperazine] | – | 31%
CC1CN(c2nc(Cc3ccc(Cl)cc3)ns2)CCN1S(=O)(=O)c1cccc2ccccc12 (stereo not drawn) [compound 43, 1-[1-naphtylsulfonyl]-4-[3-(4-chlorobenzyl)-1,2,4-thiadiazol-5-yl]-2-methylpiperazine] | 0.89 µM | 35%
COc1cccc(Cc2nsc(N3CCN(C(=O)c4ccccc4)C(C)C3)n2)c1 (stereo not drawn) [compound 173, 1-benzoyl-4-[3-(3-methoxybenzyl)-1,2,4-thiadiazol-5-yl]-2-methylpiperazine] | – | 85%
Cc1ccc(Cc2nsc(N3CCN(S(=O)(=O)c4ccc(Cl)cc4)C(C)C3)n2)cc1 (stereo not drawn) [compound 34, 1-[4-chlorophenylsulfonyl]-4-[3-(4-methylbenzyl)-1,2,4-thiadiazol-5-yl]-2-methylpiperazine] | 0.0657 µM | 66%
Cc1ccc(Cc2nsc(N3CCN(S(=O)(=O)c4cc(Cl)ccc4Cl)C(C)C3)n2)cc1 (stereo not drawn) [compound 36, 1-[2,5-dichlorophenylsulfonyl]-4-[3-(4-methylbenzyl)-1,2,4-thiadiazol-5-yl]-2-methylpiperazine] | 0.1 µM | 52%
COc1ccc(S(=O)(=O)N2CCN(c3nc(Cc4ccccc4F)ns3)CC2)cc1 [compound 194, 1-[4-methoxyphenylsulfonyl]-4-[3-(2-fluoro-benzyl)-1,2,4-thiadiazol-5-yl]piperazine] | 0.0027 µM | 102%
Cc1ccccc1C(=O)NCCN1CCN(c2nc(Cc3ccc(F)cc3)ns2)CC1 [compound 99, 2-methyl-N-{2-[4-[3-(4-fluorobenzyl)-1,2,4-thiadiazol-5-yl]piperazin-1-yl]ethyl}benzamide] | 1.58 µM | 97%
CC1CN(c2nc(Cc3ccc(F)cc3)ns2)CCN1S(=O)(=O)c1ccc(C(C)(C)C)cc1 (stereo not drawn) [compound 54, 1-[4-tert-butylphenylsulfonyl]-4-[3-(4-fluorobenzyl)-1,2,4-thiadiazol-5-yl]-2-methylpiperazine] | – | 60%
Cc1ccccc1C(=O)N1CCN(c2nc(Cc3ccc(F)cc3)ns2)CC1C (stereo not drawn) [compound 140, 1-(2-methylbenzoyl)-4-[3-(4-fluorobenzyl)-1,2,4-thiadiazol-5-yl]-2-methylpiperazine] | 0.45 µM | 56%
CC1CN(c2nc(Cc3ccc(F)cc3)ns2)CCN1C(=O)CCc1ccccc1 (stereo not drawn) [compound 89, 1-(3-phenylpropanoyl)-4-[3-(4-fluorobenzyl)-1,2,4-thiadiazol-5-yl]-2-methylpiperazine] | 0.6 µM | 86%
CC(=O)Nc1ccc(S(=O)(=O)N2CCN(c3nc(Cc4ccc(C)cc4)ns3)CC2C)cc1 (stereo not drawn) [compound 48, 1-[4-acetamidophenylsulfonyl]-4-[3-(4-methylbenzyl)-1,2,4-thiadiazol-5-yl]-2-methylpiperazine] | 0.00844 µM | 91%
Cc1ccc(Cc2nsc(N3CCN(C(=O)Cc4ccc(F)cc4)C(C)C3)n2)cc1 (stereo not drawn) [compound 3, 1-(4-fluorophenylacetyl)-4-[3-(4-methylbenzyl)-1,2,4-thiadiazol-5-yl]-2-methylpiperazine] | 2.2 µM | 76%
Cc1ccc(Cc2nsc(N3CCN(C(=O)c4ccc5c(c4)OCO5)C(C)C3)n2)cc1 (stereo not drawn) [compound 161, 1-(1,3-benzodioxol-5-ylcarbonyl)-4-[3-(4-methylbenzyl)-1,2,4-thiadiazol-5-yl]-2-methyl + B176piperazine] | 3.36 µM | 101%
COc1cccc(Cc2nsc(N3CCN(C(=O)c4ccc(Cl)cc4)C(C)C3)n2)c1 (stereo not drawn) [compound 174, 1-(4-chlorobenzoyl)-4-[3-(3-methoxybenzyl)-1,2,4-thiadiazol-5-yl]-2-methylpiperazine] | – | 83%
CCc1ccc(C(=O)N2CCN(c3nc(Cc4cccc(OC)c4)ns3)CC2C)cc1 (stereo not drawn) [compound 143, 1-(4-ethylbenzoyl)-4-[3-(3-methoxybenzyl)-1,2,4-thiadiazol-5-yl]-2-methylpiperazine] | 0.56 µM | 89%
CCS(=O)(=O)N1CCN(c2nc(Cc3ccc(Cl)cc3)ns2)CC1 [compound 84, 1-(ethylsulfonyl)-4-[3-(4-chlorobenzyl)-1,2,4-thiadiazol-5-yl]piperazine] | 3.48 µM | 53%
COc1ccc(S(=O)(=O)NCCN(C)c2nc(Cc3cccc(OC)c3)ns2)cc1 [compound 213, N′-[4-methoxyphenylsulfonyl]-N-[3-(3-methoxybenzyl)-1,2,4-thiadiazol-5-yl]-N-methylethane-1,2-diamine] | 0.361 µM | 94%
COc1ccc(S(=O)(=O)N2CCN(c3nc(Cc4cccc(OC)c4)ns3)CC2C)cc1 (stereo not drawn) [compound 208, 1-[4-methoxyphenylsulfonyl]-4-[3-(3-methoxybenzyl)-1,2,4-thiadiazol-5-yl]-2-methyl-piperazine] | 0.0073 µM | –
CCc1ccc(C(=O)N2CCN(c3nc(Cc4ccc(F)cc4)ns3)CC2C)cc1 (stereo not drawn) [compound 116, 1-(4-ethylbenzoyl)-4-[3-(4-fluorobenzyl)-1,2,4-thiadiazol-5-yl]-2-methylpiperazine] | 0.0522 µM | 71%
